Measurements taken from US10703724B2, “Crystalline forms of {[5-(3-chlorophenyl)-3-hydroxypyridine-2-carbonyl] amino} acetic acid and processes for preparation thereof” (Crystal Pharmaceutical (Suzhou) Co., Ltd., priority 2016, dated 2020).
Converted amounts (≈) assume the structure as drawn. “Also recorded” adds a separate entry of the source.

How the values were obtained:
[1] = as disclosed in WO2015073779; cited from earlier work
[2] = Solubility in SGF (suspension rotated, filtrate concentration by HPLC); assay type: physicochemical; settings: for Solubility in SGF: SGF (simulated gastric fluids); for solubility in SGF compared with Form A in WO2015073779: SGF at 1 h, 4 h and 24 h
Description: Certain amount of Form CS1 in the present disclosure and Form A in WO2015073779 were weighted into vials and suspended in SGF (Simulated Gastric Fluids). The systems were rotated on the rotator at a rate of 25 r/min. After equilibrated for 1 h, 4 h and 24 h, the suspension was separated through 0.45 μm PTFE centrifugal filter and the filtrate was collected. The concentration of the filtrates was measured by HPLC.
(§1) Certain amount of Form CS8 in the present disclosure and Form A in WO2015073779 was weighted into vials and then suspended in SGF (Simulated gastric fluids) and water. The systems were rotated on the rotator at a rate of 25 r/min. After equilibrated for 1 h, 4 h and 24 h, the suspension was separated through 0.45 μm PTFE centrifugal filter and the filtrate was collected. The concentration of the filtrates was measured by HPLC.

[3] = Storage stability of the crystalline form (XRPD before and after storage); assay type: physicochemical; settings: for Solid Form after storage: XRPD
Description: Form CS1 in the present disclosure was stored under 25° C./60% RH and 40° C./75% RH for 1 month. The XRPD pattern was collected before and after storage, and the XRPD pattern overlay is depicted in FIG. 10.
Accelerated experiment: Form CS2 was stored under 25° C./60% RH, 40° C./75% RH and 60° C./75% RH for 1 month. The XRPD pattern was collected before and after storage, and the overlay is depicted in FIG. 11.
Form CS8 of the present disclosure was stored under 25° C./60% RH, 40° C./75% RH and 60° C./75% RH for 20 days.

[4] = Stability comparison experiment: slurry in water at room temperature, about 40 days; assay type: physicochemical
Description: Stability comparison experiment: about 4 mg of Form CS2 and Form A in WO2015073779 was weighted into a 1.5 mL glass vial and 1.0 mL of water was added into the vial. The solid form of the initial sample was tested. After stirring at a rate of 500 r/min at room temperature for about 40 days, the solid form of the sample was tested again. The XRPD pattern overlay is depicted in FIG. 13.

[5] = Mechanical stability experiment: manual grinding for 5 minutes in a mortar; assay type: physicochemical; settings: XRPD
Description: Mechanical stability experiment: Form CS2 was manually ground for 5 minutes in a mortar. The XRPD pattern collected before and after grinding is depicted in FIG. 12.

[6] = Hygroscopicity by dynamic vapor sorption (DVS); assay type: physicochemical
Description: Dynamic Vapor Sorption (DVS) was measured via an SMS (Surface Measurement Systems Ltd.) intrinsic DVS instrument. Its control software is DVS-Intrinsic control software, and its analysis software is DVS-Intrinsic Analysis software. Typical Parameters for DVS test are as follows: • Temperature: 25° C. • Gas and flow rate: N2, 200 mL/min • dm/dt: 0.002%/min • RH range: 0% RH to 95% RH
Dynamic vapor sorption (DVS) was applied to test hygroscopicity of Form CS2 with 10 mg of sample.
Dynamic vapor sorption (DVS) was applied to test hygroscopicity of Form CS8 with 10 mg of sample and the DVS curve is depicted in FIG. 14. The weight gain of Form CS8 under 80% RH is 0.06%, which means Form CS8 is non hygroscopic or almost non hygroscopic.
Description and definition of hygroscopicity in the general principle 9103 of Chinese Pharmacopoeia: • deliquescent: Sufficient water is absorbed to form a liquid; • very hygroscopic: Increase in mass is equal to or greater than 15 percent; • hygroscopic: Increase in mass is less than 15 percent and equal to or greater than 2 percent; • slightly hygroscopic: Increase in mass is less than 2 percent and equal to or greater than 0.2 percent. • non hygroscopic or almost non hygroscopic: Increase in mass is less than 0.2%.

[7] = Pressure stability: tableting under 3 KN, 7 KN and 14 KN, XRPD before and after; assay type: physicochemical; settings: 7 KN and 14 KN pressure
From the text: Form CS2 was compressed using an ENERPAC manual tablet press under 3 KN, 7 KN and 14 KN pressure with φ6 mm round tooling (to ensure isotropy of the tablet). XRPD pattern overlay depicted in FIG. 15 was collected by a […] Panalytical Empyrean X-ray diffractometer before and after tableting.

[8] = Solubility in water (suspension rotated, filtrate concentration by HPLC); assay type: physicochemical
Description: as §1

[9] = 25° C./60% RH, 40° C./75% RH and 60° C./75% RH

Row | Structure (SMILES) | Solubility in SGF ([2]; equilibrated 1 h) [mg/mL] | Solubility in SGF ([2]; equilibrated 4 h) [mg/mL] | Solubility in SGF ([2]; equilibrated 24 h) [mg/mL] | solubility in SGF compared with Form A in WO2015073779 [2] | Solid Form after storage ([3]; 25° C./60% RH, 1 month) | Solid Form after storage ([3]; 40° C./75% RH, 1 month) | time the form keeps stable [3, 9] | other results
1 | O=C(O)CNC(=O)c1ncc(-c2cccc(Cl)c2)cc1O [Form B, {[5-(3-chlorophenyl)-3-hydroxypyridine-2-carbonyl]amino} acetic acid] | – | – | – | – | – | – | – | conversion in slurry at high temperature [1]: may convert to Form A
2 | O=C(O)CNC(=O)c1ncc(-c2cccc(Cl)c2)cc1O [Form CS8, {[5-(3-chlorophenyl)-3-hydroxypyridine-2-carbonyl]amino} acetic acid] | 0.020 (≈ 65.2 µM) | 0.022 (≈ 71.7 µM) | 0.033 (≈ 108 µM) | higher | – | – | at least 20 days | solubility in water compared with Form A in WO2015073779 [8]: higher; weight gain at 90% RH ([6]; DVS, 25° C.): 0.08%; weight gain at 80% RH ([6]; DVS, 25° C., 10 mg of sample): 0.06%; hygroscopicity class (Chinese Pharmacopoeia general principle 9103) ([6]; from weight gain under 80% RH): non hygroscopic or almost non hygroscopic (Increase in mass is less than 0.2%)
3 | O=C(O)CNC(=O)c1ncc(-c2cccc(Cl)c2)cc1O [Form A in WO2015073779, {[5-(3-chlorophenyl)-3-hydroxypyridine-2-carbonyl]amino} acetic acid, reference compound] | 0.0085 (≈ 27.7 µM) | 0.0086 (≈ 28 µM) | 0.0038 (≈ 12.4 µM) | – | – | – | – | solid form after slurry in water ([4]; water, 500 r/min, room temperature, XRPD): almost completely converted to Form CS2

Now from value to compound, other results behind:

Row | Solubility in SGF ([2]; equilibrated 1 h) [mg/mL] | Solubility in SGF ([2]; equilibrated 4 h) [mg/mL] | Solubility in SGF ([2]; equilibrated 24 h) [mg/mL] | solubility in SGF compared with Form A in WO2015073779 [2] | Solid Form after storage ([3]; 25° C./60% RH, 1 month) | Solid Form after storage ([3]; 40° C./75% RH, 1 month) | time the form keeps stable [3, 9] | Structure (SMILES) | other results
4 | 0.023 (≈ 75 µM) | 0.026 (≈ 84.8 µM) | 0.019 (≈ 61.9 µM) | higher | Form CS1, no form change | Form CS1, no form change | – | O=C(O)CNC(=O)c1ncc(-c2cccc(Cl)c2)cc1O [Form CS1, {[5-(3-chlorophenyl)-3-hydroxypyridine-2-carbonyl]amino} acetic acid] | time the form keeps stable ([3]; 25° C./60% RH and 40° C./75% RH): at least 1 month
5 | – | – | – | – | Form CS2, no form change | Form CS2, no form change | at least 1 month | O=C(O)CNC(=O)c1ncc(-c2cccc(Cl)c2)cc1O [Form CS2, {[5-(3-chlorophenyl)-3-hydroxypyridine-2-carbonyl]amino} acetic acid] | Solid Form after storage ([3]; 25° C./60% RH, 20 days): Form CS8, no form change; Solid Form after storage ([3]; 40° C./75% RH, 20 days): Form CS8, no form change; Solid Form after storage ([3]; 60° C./75% RH, 1 month): Form CS2, no form change; Solid Form after storage ([3]; 60° C./75% RH, 20 days): Form CS8, no form change; stability in water compared with Form A in WO2015073779 ([4]; slurry in water): more stable; crystal structure after manual grinding [5]: doesn't change; weight gain from 40% RH to 80% RH ([6]; DVS, 25° C., 10 mg of sample): 0.11%; hygroscopicity (in words) ([6]; from weight gain 40% RH to 80% RH): low hygroscopic; form change after tableting [7]: no form change; also recorded: stable
